Source: US7265130B2, “NPY Y5 antagonist” (Shionogi & Co., Ltd., priority 1999, dated 2007)

What was measured:
NPY Y2 receptor = molecular target: T1, NPY Y2 receptor (Homo sapiens, UniProt P49146); assay: Affinity for NPY Y2 receptor (membranes from SMS-KAN cells); conditions: membranes from Y2-expression cells (human neuroblastoma, SMS-KAN); read-out: Binding IC50 for NPY Y2 receptor
T1 construct: membranes prepared from Y2-expression cells (human neuroblastoma, SMS-KAN); endogenous in cells; host or cells: SMS-KAN human neuroblastoma cells (membranes)
T1 sequence (P49146 1-381): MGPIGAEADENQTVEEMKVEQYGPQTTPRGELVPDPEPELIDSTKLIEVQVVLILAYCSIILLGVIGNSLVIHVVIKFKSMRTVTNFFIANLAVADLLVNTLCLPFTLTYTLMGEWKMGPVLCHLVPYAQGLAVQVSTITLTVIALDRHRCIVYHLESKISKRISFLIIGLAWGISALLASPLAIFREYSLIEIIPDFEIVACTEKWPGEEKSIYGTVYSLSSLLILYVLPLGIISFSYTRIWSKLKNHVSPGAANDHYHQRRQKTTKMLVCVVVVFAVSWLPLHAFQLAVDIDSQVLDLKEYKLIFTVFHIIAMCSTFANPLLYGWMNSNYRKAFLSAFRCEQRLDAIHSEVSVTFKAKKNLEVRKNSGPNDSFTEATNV
Protocol: (§1) The membranes prepared from the above CHO cells expressing NPY Y5 receptor, the compound of the present invention and 30,000 cpm [^125I] peptide YY (60 pM of final concentration: Amersham) were incubated in the assay buffer (20 mM HEPES-Hanks buffer containing 0.1% bovine serum albumin, pH 7.4) at 25° C. for 2 hours, and then the mixture was filtered with a glassfilter GF/C treated with polyethyleneimine. After the glassfilter was washed with 50 mM Tris-HCl buffer (pH 7.4), the radioactivity on the filter was measured with a gamma counter. The non-specific binding was detected in the presence of 200 nM of peptide YY. The 50% inhibitory concentration of the test compound against the specific peptide YY binding (IC50 value) was calculated (Inui, A. et al. Endocrinology 131, 2090-2096 (1992)).
(§2) Using the membranes prepared from Y1-expression cells (human neuroblastoma, SK-N-MC) and the membranes prepared from Y2-expression cells (human neuroblastoma, SMS-KAN), the experiment was carried out in a similar way as Experiment 1 to determine the affinity for NPY Y1 receptor and NPY Y2 receptor.

NPY Y1 receptor = molecular target: T2, NPY Y1 receptor (Homo sapiens, UniProt P25929); assay: Affinity for NPY Y1 receptor (membranes from SK-N-MC cells); conditions: membranes from Y1-expression cells (human neuroblastoma, SK-N-MC); read-out: Binding IC50 for NPY Y1 receptor
T2 construct: membranes prepared from Y1-expression cells (human neuroblastoma, SK-N-MC); endogenous in cells; host or cells: SK-N-MC human neuroblastoma cells (membranes)
T2 sequence (P25929 1-384): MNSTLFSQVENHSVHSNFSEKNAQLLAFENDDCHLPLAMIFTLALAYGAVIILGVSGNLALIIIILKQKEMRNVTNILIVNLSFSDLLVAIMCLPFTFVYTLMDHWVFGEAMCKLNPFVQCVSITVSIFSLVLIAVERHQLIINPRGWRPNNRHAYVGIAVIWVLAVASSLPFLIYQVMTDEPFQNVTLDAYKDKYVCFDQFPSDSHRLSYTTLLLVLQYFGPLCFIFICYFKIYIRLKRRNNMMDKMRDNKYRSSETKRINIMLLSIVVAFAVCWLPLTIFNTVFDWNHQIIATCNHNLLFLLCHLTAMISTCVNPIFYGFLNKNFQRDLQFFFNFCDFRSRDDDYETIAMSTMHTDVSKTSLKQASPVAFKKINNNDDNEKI
Protocol: as §1, §2

human NPY Y5 receptor [1] = molecular target: T3, human NPY Y5 receptor (Homo sapiens, UniProt Q15761); assay: cAMP production inhibitory activity in CHO cells; format: cell-based; conditions: against 50 nM NPY inhibition of forskolin stimulated cAMP, CHO cells expressing human NPY Y5 receptor
T3 construct: expressed in transfected cells
T3 sequence (Q15761 1-445): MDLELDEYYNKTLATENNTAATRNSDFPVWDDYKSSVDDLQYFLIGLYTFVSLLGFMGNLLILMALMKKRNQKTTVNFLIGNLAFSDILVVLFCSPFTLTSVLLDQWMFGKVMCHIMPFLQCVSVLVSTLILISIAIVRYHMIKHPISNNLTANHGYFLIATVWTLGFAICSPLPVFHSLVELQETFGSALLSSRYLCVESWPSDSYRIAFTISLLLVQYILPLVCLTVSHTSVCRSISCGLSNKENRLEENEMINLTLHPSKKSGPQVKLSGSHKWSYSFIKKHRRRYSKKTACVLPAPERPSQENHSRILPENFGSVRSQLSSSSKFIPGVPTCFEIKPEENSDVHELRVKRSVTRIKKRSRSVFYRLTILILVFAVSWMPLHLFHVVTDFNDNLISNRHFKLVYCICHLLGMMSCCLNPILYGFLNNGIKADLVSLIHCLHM
How it was run: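 CHO cells expressing human NPY Y5 receptor preincubated 20 min at 37 °C with 2.5 mM IBMX, then with compound for 5 min. Stimulated with 50 nM NPY plus 10 μM forskolin for 30 min. Reaction stopped with 1N HCl; supernatant cAMP measured by EIA.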

human NPY Y5 receptor [2] = molecular target: T3, human NPY Y5 receptor; assay: Affinity for NPY Y5 receptor ([125I] peptide YY binding, CHO cell membranes); conditions: inhibition of specific [125I] peptide YY binding, membranes of CHO cells expressing NPY Y5 receptor
How it was run: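 Membranes from CHO cells stably expressing human NPY Y5 receptor incubated with test compound and [125I] peptide YY (60 pM final) in HEPES-Hanks buffer with 0.1% BSA, pH 7.4, 25° C for 2 hours. Filter-bound radioactivity counted; non-specific binding with 200 nM peptide YY; IC50 against specific binding calculated.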

SMILES | IC50 (NPY Y2 receptor) [µM] | IC50 (NPY Y1 receptor) [µM] | IC50 (human NPY Y5 receptor [1]) [µM] | IC50 (human NPY Y5 receptor [2]) [µM]
CC(C)(C)S(=O)(=O)NC1CCC(C(=O)Nc2ccc(C(F)(F)F)cc2)CC1 (centres unmarked) [Compound I-212] | ≥ 100 | ≥ 100 | 0.0075 | 0.00067
CC(C)S(=O)(=O)NCCCCC(=O)Nc1ccc(N2C[C@@H](C)O[C@@H](C)C2)cc1 [Ia-3] | ≥ 100 | ≥ 100 | 0.15 | 0.0092
C[C@@H]1CN(c2ccc(NC(=O)CCCCNS(=O)(=O)C(C)(C)C)cc2)C[C@H](C)O1 [Ia-5] | ≥ 100 | ≥ 100 | 0.043 | 0.0016
CC(C)S(=O)(=O)NC1CCC(C(=O)Nc2ccc(N3C[C@@H](C)O[C@@H](C)C3)cc2)CC1 (some centres unmarked) [Ia-6] | ≥ 100 | ≥ 100 | 0.023 | 0.0024
CCC(C)c1ccc(NC(=O)C2CCC(NS(=O)(=O)C(C)(C)C)CC2)cc1 (centres unmarked) [Ia-12] | ≥ 100 | ≥ 100 | 0.0055 | 0.00094
COc1ccc(NC(=O)C2CCC(NS(=O)(=O)C(C)(C)C)CC2)cc1 (centres unmarked) [Ia-16] | ≥ 100 | ≥ 100 | – | 0.0001
CC(C)(C)S(=O)(=O)NC1CCC(C(=O)Nc2ccc(OC(F)(F)F)cc2)CC1 (centres unmarked) [Ia-17] | ≥ 100 | ≥ 100 | 0.0019 | 0.0001
CC(C)(C)S(=O)(=O)NC1CCC(C(=O)Nc2cccc(F)c2)CC1 (centres unmarked) [Ia-20] | ≥ 100 | ≥ 100 | 0.1 | 0.0049
C[C@@H]1CN(c2ccc(NC(=O)[C@H]3CC[C@H](NS(=O)(=O)C(C)(C)C)CC3)cc2F)C[C@H](C)O1 [Ia-21] | ≥ 100 | ≥ 100 | 0.035 | 0.0034
Cc1cc(NC(=O)[C@H]2CC[C@H](NS(=O)(=O)C(C)(C)C)CC2)ccc1N1C[C@@H](C)O[C@@H](C)C1 [Ia-22] | ≥ 100 | ≥ 100 | 0.038 | 0.0031
C[C@@H]1CN(c2ccc(NC(=O)C3CCC(NS(=O)(=O)C(C)(C)C)CC3)c(F)c2)C[C@H](C)O1 (some centres unmarked) [Ia-26] | ≥ 100 | ≥ 100 | 0.027 | 0.0019
Cc1cc(N2C[C@@H](C)O[C@@H](C)C2)ccc1NC(=O)C1CCC(NS(=O)(=O)C(C)(C)C)CC1 (some centres unmarked) [Ia-28] | ≥ 100 | ≥ 100 | 0.13 | 0.0052
C[C@@H]1CN(c2ccc(NC(=O)C3CCC(NS(=O)(=O)C(C)(C)C)CC3)c(F)c2F)C[C@H](C)O1 (some centres unmarked) [Ia-29] | ≥ 100 | ≥ 100 | 0.0073 | 0.001
C[C@@H]1CN(c2c(F)c(F)c(NC(=O)C3CCC(NS(=O)(=O)C(C)(C)C)CC3)c(F)c2F)C[C@H](C)O1 (some centres unmarked) [Ia-30] | ≥ 100 | ≥ 100 | 0.025 | 0.0026

Other lines, results leading:

IC50 (NPY Y2 receptor) [µM] | IC50 (NPY Y1 receptor) [µM] | IC50 (human NPY Y5 receptor [1]) [µM] | IC50 (human NPY Y5 receptor [2]) [µM] | SMILES
≥ 100 | ≥ 100 | – | – | CCCCc1ccc(NC(=O)CCCNS(=O)(=O)C(C)(C)C)cc1 [Compound I-27]
≥ 100 | ≥ 100 | – | – | CCCCc1ccc(C(=O)NC2CCC(NS(=O)(=O)C(C)(C)C)CC2)cc1 (centres unmarked) [Compound I-32]
≥ 100 | ≥ 100 | 0.0382 | 0.0053 | CC(C)(C)S(=O)(=O)NC1CCC(C(=O)Nc2ccc(N3CCOCC3)cc2)CC1 (centres unmarked) [Compound I-41]
≥ 100 | ≥ 100 | 0.0279 | 0.0012 | CC(C)(C)S(=O)(=O)NC1CCC(C(=O)Nc2ccc(N3CCCCC3)cc2)CC1 (centres unmarked) [Compound I-45]
≥ 100 | ≥ 100 | 0.0105 | 0.0008 | CCn1c2ccccc2c2cc(NC(=O)C3CCC(NS(=O)(=O)C(C)(C)C)CC3)ccc21 (centres unmarked) [Compound I-46]
≥ 100 | ≥ 100 | 0.0149 | 0.0006 | CC(C)(C)S(=O)(=O)NC1CCC(C(=O)Nc2ccc(I)cc2)CC1 (centres unmarked) [Compound I-47]
≥ 100 | ≥ 100 | – | – | CC(C)(C)S(=O)(=O)NC1CCC(C(=O)Nc2ccc(F)cc2)CC1 (centres unmarked) [Compound I-48]
≥ 100 | ≥ 100 | 0.0081 | 0.0004 | CC(C)(C)S(=O)(=O)NC1CCC(C(=O)Nc2ccc(N3CCCC3)cc2)CC1 (centres unmarked) [Compound I-49]
≥ 100 | ≥ 100 | 0.035 | 0.0008 | CC(C)(C)S(=O)(=O)NC1CCC(C(=O)Nc2ccc(N3CC=CCC3)cc2)CC1 (centres unmarked) [Compound I-59]
≥ 100 | ≥ 100 | 0.0053 | 0.00026 | CC(C)(C)S(=O)(=O)NC1CCC(C(=O)Nc2ccc(-n3cccc3)cc2)CC1 (centres unmarked) [Compound I-61]
≥ 100 | ≥ 100 | 0.05 | 0.0013 | CC(C)(C)S(=O)(=O)NC1CCC(C(=O)Nc2ccc(Br)cc2)CC1 (centres unmarked) [Compound I-63]
≥ 100 | ≥ 100 | 0.08 | 0.0022 | CC(C)(C)S(=O)(=O)NC1CCC(C(=O)Nc2ccc3c(c2)OCO3)CC1 (centres unmarked) [Compound I-64]
≥ 100 | ≥ 100 | 0.03 | 0.0015 | Cc1cc(=O)oc2cc(NC(=O)C3CCC(NS(=O)(=O)C(C)(C)C)CC3)ccc12 (centres unmarked) [Compound I-66]
≥ 100 | ≥ 100 | 0.013 | 0.0038 | CN(C)c1cccc(NC(=O)C2CCC(NS(=O)(=O)C(C)(C)C)CC2)c1 (centres unmarked) [Compound I-69]
≥ 100 | ≥ 100 | 0.0021 | 0.0023 | C[C@@H]1CN(c2ccc(NC(=O)[C@H]3CC[C@H](NS(=O)(=O)C(C)(C)C)CC3)cc2)C[C@H](C)O1 [Compound I-72]
≥ 100 | ≥ 100 | 0.046 | 0.00088 | CC(C)(C)S(=O)(=O)NC1CCC(C(=O)NCCSc2cc(C(F)(F)F)nc3ccccc23)CC1 (centres unmarked) [Compound I-152]
≥ 100 | ≥ 100 | 0.011 | 0.0011 | CC(C)(C)S(=O)(=O)NC1CCC(C(=O)NCc2cccc3ccccc23)CC1 (centres unmarked) [Compound I-154]
≥ 100 | ≥ 100 | 0.0063 | 0.001 | CC(C)(C)S(=O)(=O)NC1CCC(C(=O)Nc2ccc3c(c2)CCC3)CC1 (centres unmarked) [Compound I-204]
≥ 100 | ≥ 100 | 0.017 | 0.0029 | CC(C)NC(=O)c1cccc(NC(=O)C2CCC(NS(=O)(=O)C(C)(C)C)CC2)c1 (centres unmarked) [Compound I-205]
